Assay results published in patent US20220184056A1, “USE OF KDM5A GENE AND ATRX GENE” (SHENZHEN CHIPSCREEN BIOSCIENCES, CO., LTD., priority 2019, published 2022).
Values joined by “and” are separate entries in the source; they are usually repeats but may differ in a detail not shown here. Identical values can stand only once.

Legend:
[1] = tested on: relapsed and refractory small cell lung cancer; experiment: Phase Ib clinical trial of Chiauranib monotherapy for relapsed and refractory small cell lung cancer, with ctDNA biomarker study (KDM5A, ATRX); type: in vivo, human
Protocol: According to the present invention, a phase Ib clinical trial of using Chiauranib capsules to treat relapsed and refractory small cell lung cancer was carried out, and a concomitant study of efficacy-related biomarkers for 548 tumor-related genes was carried out by detecting and analyzing plasma free tumor DNA (ctDNA). Blood samples were taken from all patients before enrollment, and gene sequences of tumor-related genes were detected, including gene mutations and copy number abnormalities. According to detection results, genes with mutation rates of more than 0.4% were all selected, and progression free survival (PFS) and objective response rates (ORR) of patients were taken as efficacy indicators to analyze the correlation between tumor-related gene abnormalities and the efficacy of Chiauranib.
Test drug: Chiauranib capsules, with specifications of 5 mg and 25 mg. They were manufactured by Shenzhen Chipscreen Biosciences Co., Ltd.
Dosing regimen: the Chiauranib capsules were administered QD at 50 mg/day (not adjusted according to the body weight or the body surface area). The capsules were taken on an empty stomach every morning with water, and the whole capsules were swallowed completely. Continuous administration for 28 days was one treatment cycle, and there was no interval during each treatment cycle.
Number of cases: 25 patients were enrolled.
The test subjects took 50 mg of Chiauranib capsules orally once daily, every 28 days was taken as one treatment cycle, and there was no withdrawal interval during the treatment cycles. All subjects received continuous treatment throughout the trial period until any one of the following occurred (whichever occurred first): progressed disease, intolerable toxicity, death, withdrawal of the informed consent, or loss to follow-up.
Efficacy evaluation: according to the RECIST 1.1 criteria, evaluations were respectively performed in the baseline period and at the end of the 4th week after treatment, and repeated every 8 weeks until a progressive disease occurred. Tumor imageological examinations included CT or MRI of neck, chest, whole abdomen, and pelvic cavity. Other site examinations should be performed as necessary according to clinical indications. The same technologies and methods should be used for baseline of lesions and subsequent evaluation and measurement.
10 mL of peripheral blood was taken before the subjects took Chiauranib for the first time and when a progressive disease occurred, gene sequences of plasma free tumor DNA (ctDNA) and leukocyte extracted DNA (control) were detected, a total of 548 tumor-related genes were included, and detection results included gene mutations and copy number abnormalities, as well as analysis of tumor mutation burden (TMB).
Plasma free tumor DNA (ctDNA) of the evaluated patients was detected and analyzed, and a concomitant study of efficacy-related biomarkers for the 548 tumor-related genes was carried out. According to detection results, genes with mutation rates of more than 0.4% were all selected, and progression free survival (PFS) and objective response (PR) of the patients were taken as efficacy indicators to analyze the correlation between tumor-related gene abnormalities and the efficacy of Chiauranib.

[2] = tested on: SCLC; conditions: topotecan combined optimal supportive treatment vs optimal supportive treatment alone; cited from earlier work

| Structure (SMILES) | efficacy of monotherapy in the treatment of small cell lung cancer ([1]; 50 mg QD oral) | benefit rate ([1]; 20 evaluated patients, 50 mg QD oral) [%] | ORR ([1]; 20 evaluated patients, 50 mg QD oral, RECIST 1.1) [%] | Non-response (SD + PD), number of patients ([1]; ATRX mutation (6 patients)) [patients] | Non-response (SD + PD), share of patients ([1]; ATRX mutation (6 patients)) [%] | Objective response (PR), number of patients ([1]; ATRX mutation (6 patients)) [patients] | Objective response (PR), share of patients ([1]; ATRX mutation (6 patients)) [%] | Non-response (SD + PD), number of patients ([1]; ATRX wild type (14 patients)) [patients] | Non-response (SD + PD), share of patients ([1]; ATRX wild type (14 patients)) [%] | Objective response (PR), number of patients ([1]; ATRX wild type (14 patients)) [patients] | Objective response (PR), share of patients ([1]; ATRX wild type (14 patients)) [%] | PFS Hazard ratio (HR) ([1]; KDM5A wild type vs mutation, P value 0.0087) | patients with best efficacy evaluation being partial response (PR) ([1]; among 20 evaluated patients) [patients] | PFS, Median (95% CI) ([1]; patients with KDM5A gene mutation (n = 8)) | PFS, Median (95% CI) ([1]; patients with wild-type KDM5A gene (n = 12)) | Overall survival, quality of life, improvement of symptoms [2] |
| --- | --- | --- | --- | --- | --- | --- | --- | --- | --- | --- | --- | --- | --- | --- | --- | --- |
| COc1ccc2c(Oc3ccc4c(C(=O)Nc5ccccc5N)cccc4c3)ccnc2c1 [Chiauranib, N-(2-aminophenyl)-6-(7-methoxyquinolin-4-oxy)-1-naphthamide] | effective | 60 | 20 | 2 | 33.3 | 4 | 66.7 | 14 | 100.0 | 0 | 0 | 16.5 (2.03, 133.37) | 4 | 145 days and 145.0 (23.0, 145.0) days | 27.5 days and 27.5 (16.0, 61.0) days | – |
| CC[C@@]1(O)C(=O)OCc2c1cc1n(c2=O)Cc2cc3c(CN(C)C)c(O)ccc3nc2-1 [topotecan] | – | – | – | – | – | – | – | – | – | – | – | – | – | – | – | significantly better |
